Laboratory results as given in PMC3849818 (Journal of medicinal chemistry, 2013).

Each molecule was assayed against T1, OX2 receptor (Homo sapiens, UniProt O43614) (assay: OX2 calcium mobilization functional assay).
T1 sequence (O43614 1-444): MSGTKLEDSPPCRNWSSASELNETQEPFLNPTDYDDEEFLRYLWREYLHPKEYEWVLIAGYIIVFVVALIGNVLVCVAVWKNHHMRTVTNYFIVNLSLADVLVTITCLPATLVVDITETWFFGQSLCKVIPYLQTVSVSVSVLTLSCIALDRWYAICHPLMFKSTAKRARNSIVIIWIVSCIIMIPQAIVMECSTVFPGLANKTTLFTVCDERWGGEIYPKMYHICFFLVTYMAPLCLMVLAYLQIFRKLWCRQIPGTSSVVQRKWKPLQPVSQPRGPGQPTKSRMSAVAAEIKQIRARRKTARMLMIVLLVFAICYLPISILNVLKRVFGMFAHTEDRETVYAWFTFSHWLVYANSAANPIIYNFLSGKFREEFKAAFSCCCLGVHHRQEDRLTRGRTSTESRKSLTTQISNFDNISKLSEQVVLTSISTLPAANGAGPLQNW
Assay type: cell-based

Compound	Kd [µM]
COc1cc2c(cc1O)C(Cc1ccc(OC)c(OC)c1)N(CC(=O)NCc1ccccc1)CC2 (stereo not shown) [Compound 11, N-benzyl-2-{1-[(3,4-dimethoxyphenyl)methyl]-7-hydroxy-6-methoxy-1,2,3,4-tetrahydroisoquinolin-2-yl}acetamide]	5.74 ± 0.096
CCCCOc1cc2c(cc1OC)CCN(CC(=O)NCc1ccccc1)C2Cc1ccc(OC)c(OC)c1 (stereo not shown) [Compound 14, N-benzyl-2-{7-butoxy-1-[(3,4-dimethoxyphenyl)methyl]-6-methoxy-1,2,3,4-tetrahydroisoquinolin-2-yl}acetamide]	1.89 ± 0.48
COc1ccc(CC2c3cc(OCCC(C)C)c(OC)cc3CCN2CC(=O)NCc2ccccc2)cc1OC (stereo not shown) [Compound 16, N-benzyl-2-{1-[(3,4-dimethoxyphenyl)methyl]-6-methoxy-7-(3-methylbutoxy)-1,2,3,4-tetrahydroisoquinolin-2-yl}acetamide]	3.92 ± 1.2
COc1ccc(CC2c3cc(OS(C)(=O)=O)c(OC)cc3CCN2CC(=O)NCc2ccccc2)cc1OC (stereo not shown) [Compound 26, 2-[(benzylcarbamoyl)methyl]-1-[(3,4-dimethoxyphenyl)methyl]-6-methoxy-1,2,3,4-tetrahydroisoquinolin-7-yl methanesulfonate]	2.17 ± 0.79
COc1ccc(CC2c3cc(OS(=O)(=O)c4ccccc4)c(OC)cc3CCN2CC(=O)NCc2ccccc2)cc1OC (stereo not shown) [Compound 29, 2-[(benzylcarbamoyl)methyl]-1-[(3,4-dimethoxyphenyl)methyl]-6-methoxy-1,2,3,4-tetrahydroisoquinolin-7-yl benzenesulfonate]	2.9 ± 0.191
COc1ccc(CC2c3cc(OC)c(OC)cc3CCN2CC(=O)N2CCc3ccccc3C2)cc1OC (stereo not shown) [Compound 35, 2-{1-[(3,4-dimethoxyphenyl)methyl]-6,7-dimethoxy-1,2,3,4-tetrahydroisoquinolin-2-yl}-1-(1,2,3,4-tetrahydroisoquinolin-2-yl)ethan-1-one]	9 ± 0.76
COc1ccc(CC2c3cc(OC)c(OC)cc3CCN2CC(=O)N2CCCC(c3ccccc3)C2)cc1OC (stereo not shown) [Compound 36, 2-{1-[(3,4-dimethoxyphenyl)methyl]-6,7-dimethoxy-1,2,3,4-tetrahydroisoquinolin-2-yl}-1-(3-phenylpiperidin-1-yl)ethan-1-one]	9.03 ± 3.8
COc1ccc(CC2c3cc(OC)c(OC)cc3CCN2CC(=O)Nc2ccccc2-c2ccccc2)cc1OC (stereo not shown) [Compound 44, 2-{1-[(3,4-dimethoxyphenyl)methyl]-6,7-dimethoxy-1,2,3,4-tetrahydroisoquinolin-2-yl}-N-(2-phenylphenyl)acetamide]	1.76 ± 0.37
COc1ccc(CC2c3cc(OC)c(OC)cc3CCN2CC(=O)NC2CCCc3ccccc32)cc1OC (stereo not shown) [Compound 47, 2-{1-[(3,4-dimethoxyphenyl)methyl]-6,7-dimethoxy-1,2,3,4-tetrahydroisoquinolin-2-yl}-N-(1,2,3,4-tetrahydronaphthalen-1-yl)acetamide]	0.655 ± 0.19
COc1ccc(CC2c3cc(OC)c(OC)cc3CCN2CC(=O)NCc2ccc(Cl)cc2)cc1OC (stereo not shown) [Compound 51, N-[(4-chlorophenyl)methyl]-2-{1-[(3,4-dimethoxyphenyl)methyl]-6,7-dimethoxy-1,2,3,4-tetrahydroisoquinolin-2-yl}acetamide]	2.27 ± 0.11
COc1ccc(CC2c3cc(OC)c(OC)cc3CCN2CC(=O)NCc2ccc(F)cc2)cc1OC (stereo not shown) [Compound 52, 2-{1-[(3,4-dimethoxyphenyl)methyl]-6,7-dimethoxy-1,2,3,4-tetrahydroisoquinolin-2-yl}-N-[(4-fluorophenyl)methyl]acetamide]	3.46 ± 1
CCCCCCNC(=O)Nc1ccc(CNC(=O)CN2CCc3cc(OC)c(OC)cc3C2Cc2ccc(OC)c(OC)c2)cc1 (stereo not shown) [Compound 59, 2-{1-[(3,4-dimethoxyphenyl)methyl]-6,7-dimethoxy-1,2,3,4-tetrahydroisoquinolin-2-yl}-N-({4-[(hexylcarbamoyl)amino]phenyl}methyl)acetamide]	2.44 ± 0.67
CCCCCCCNC(=O)CN1CCc2cc(OC)c(OC)cc2C1Cc1ccc(OC)c(OC)c1 (stereo not shown) [Compound 60, 2-{1-[(3,4-dimethoxyphenyl)methyl]-6,7-dimethoxy-1,2,3,4-tetrahydroisoquinolin-2-yl}-N-heptylacetamide]	2.31 ± 0.54
